Reference: patent US20220002293A1, “8-CYCLOPENTYL-7-OXO-2-(4-PIPERAZIN-1-YL-PHENYLAMINO)-7, 8-DIHYDRO-PYRIDO [2,3-D]PYRIMIDINE-6-CARBONITRILE AND USES THEREOF IN TREATING PROLIFERATIVE DISORDERS” (ONCONOVA THERAPEUTICS, INC., priority 2018, published 2022)
Like-named read-outs stand apart in the source and are kept apart here. Blank lines part the entries; values can stand above or below the compound they belong to.

Experiments:
[1] = tested on: K-562 (human chronic myelogenous leukemia); test: Cytotoxicity assay (CellTiter-Glo), K-562; assay type: cell-based; details: for IC50: CellTiter-Glo, read-out: Absolute IC50
From the text: (§1) Determination of the Half Maximal Inhibition Concentration IC50: • 1.

[2] = tested on: HeLa (human cervical cancer); test: Cytotoxicity assay (CellTiter-Glo), HeLa; assay type: cell-based
From the text: as §1

[3] = tested on: DU 145 (human prostate cancer); test: Cytotoxicity assay (CellTiter-Glo), DU 145; assay type: cell-based; details: for IC50: CellTiter-Glo, read-out: Absolute IC50
From the text: as §1

[4] = tested on: GRANTA-519 (human B Cell lymphoma); test: Cytotoxicity assay (CellTiter-Glo), GRANTA-519; details: for IC50: read-out: Absolute IC50
From the text: (§3) The homogeneous assay procedure involves adding a single reagent (CellTiter-Glo® Reagent) directly to cells cultured in serum-supplemented medium. The homogeneous “add-mix-measure” format results in cell lysis and generation of a luminescent signal proportional to the amount of ATP present. The amount of ATP is directly proportional to the number of cells present in culture. The assay generates a luminescent signal, produced by the luciferase reaction.
(§4) Determination of the Half Maximal Inhibition Concentration IC50: • 1. Harvest cells during the logarithmic growth period and count cell number using Count-star. • 2. […] Add 90 μL cell suspensions to two 96-well plates (plates A and B) with the final cell density of 4×10^3 cells/well. (cell concentration is adjusted according to the data base or density optimization assay.)
(§5) Next day: For the Plates of T0 Reading: • 1) Add 10 μL culture medium to each well of plate A for T0 reading. • 2) Equilibrate the plate and its content at RT for approximately 30 min. • 3) Add 50 μL CellTiter-Glo (CTG) reagent to each well. • 4) Mix content for 5 min on an orbital shaker to induce cell lysis. • 5) Allow the plate to incubate at RT for 20 min to stabilize luminescent signal. Note: Uneven luminescent signal within standard plates can be caused by temperature gradients, uneven seeding of cells or edge effects in multiwell plates. • 6) Record luminescence (T0) using EnVision Multi Label Reader.
(§6) Note: Uneven luminescent signal within standard plates can be caused by temperature gradients, uneven seeding of cells or edge effects in multiwall plates. • 9) Record luminescence.
(§7) In order to calculate absolute IC50 (EC50), a dose-response curve was fitted using nonlinear regression model with a sigmoidal dose response. The formula for calculating surviving rate is shown below and the absolute IC50 (EC50) was calculated according to the dose-response curve generated by GraphPad Prism 5.0.
(§8) The surviving rate (%)=(LumTest article−LumMedium control)/(LumNon-treated−LumMedium control)×100%.

ARK5/NUAK1 = target: T1, ARK5/NUAK1 (Homo sapiens, UniProt O60285); test: Kinase inhibition, ARK5/NUAK1; assay type: biochemical; details: 10 μM ATP; values <1 nM estimated from best curve fitting; read-out: Compound IC50 (M), ARK5/NUAK1
T1 sequence (O60285 1-661): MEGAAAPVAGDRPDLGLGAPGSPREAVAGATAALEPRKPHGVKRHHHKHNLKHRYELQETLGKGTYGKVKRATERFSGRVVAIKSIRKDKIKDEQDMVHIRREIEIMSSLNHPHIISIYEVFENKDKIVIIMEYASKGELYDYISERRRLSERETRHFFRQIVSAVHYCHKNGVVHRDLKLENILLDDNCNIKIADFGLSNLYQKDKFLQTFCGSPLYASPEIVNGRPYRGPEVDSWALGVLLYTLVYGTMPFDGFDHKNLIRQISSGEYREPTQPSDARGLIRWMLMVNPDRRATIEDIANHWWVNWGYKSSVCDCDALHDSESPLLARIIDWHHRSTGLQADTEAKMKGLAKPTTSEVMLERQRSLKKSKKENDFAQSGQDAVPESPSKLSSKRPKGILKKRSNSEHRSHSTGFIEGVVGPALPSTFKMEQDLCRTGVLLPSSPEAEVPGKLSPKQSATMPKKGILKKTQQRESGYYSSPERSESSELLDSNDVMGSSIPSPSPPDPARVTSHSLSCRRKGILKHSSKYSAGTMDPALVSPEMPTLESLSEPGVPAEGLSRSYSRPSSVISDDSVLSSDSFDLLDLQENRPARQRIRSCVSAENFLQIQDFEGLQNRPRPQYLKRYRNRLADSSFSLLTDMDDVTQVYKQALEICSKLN
Method: (§2) The compounds in Table 1 were tested for the ability to inhibit the kinase activity of the listed protein kinases.

FLT4/VEGFR3 = FLT4/VEGFR3 (Homo sapiens, UniProt P35916); test: Kinase inhibition, FLT4/VEGFR3; assay type: biochemical; details: 10 μM ATP; read-out: Compound IC50 (M), FLT4/VEGFR3
Sequence of FLT4/VEGFR3 (P35916 25-1363): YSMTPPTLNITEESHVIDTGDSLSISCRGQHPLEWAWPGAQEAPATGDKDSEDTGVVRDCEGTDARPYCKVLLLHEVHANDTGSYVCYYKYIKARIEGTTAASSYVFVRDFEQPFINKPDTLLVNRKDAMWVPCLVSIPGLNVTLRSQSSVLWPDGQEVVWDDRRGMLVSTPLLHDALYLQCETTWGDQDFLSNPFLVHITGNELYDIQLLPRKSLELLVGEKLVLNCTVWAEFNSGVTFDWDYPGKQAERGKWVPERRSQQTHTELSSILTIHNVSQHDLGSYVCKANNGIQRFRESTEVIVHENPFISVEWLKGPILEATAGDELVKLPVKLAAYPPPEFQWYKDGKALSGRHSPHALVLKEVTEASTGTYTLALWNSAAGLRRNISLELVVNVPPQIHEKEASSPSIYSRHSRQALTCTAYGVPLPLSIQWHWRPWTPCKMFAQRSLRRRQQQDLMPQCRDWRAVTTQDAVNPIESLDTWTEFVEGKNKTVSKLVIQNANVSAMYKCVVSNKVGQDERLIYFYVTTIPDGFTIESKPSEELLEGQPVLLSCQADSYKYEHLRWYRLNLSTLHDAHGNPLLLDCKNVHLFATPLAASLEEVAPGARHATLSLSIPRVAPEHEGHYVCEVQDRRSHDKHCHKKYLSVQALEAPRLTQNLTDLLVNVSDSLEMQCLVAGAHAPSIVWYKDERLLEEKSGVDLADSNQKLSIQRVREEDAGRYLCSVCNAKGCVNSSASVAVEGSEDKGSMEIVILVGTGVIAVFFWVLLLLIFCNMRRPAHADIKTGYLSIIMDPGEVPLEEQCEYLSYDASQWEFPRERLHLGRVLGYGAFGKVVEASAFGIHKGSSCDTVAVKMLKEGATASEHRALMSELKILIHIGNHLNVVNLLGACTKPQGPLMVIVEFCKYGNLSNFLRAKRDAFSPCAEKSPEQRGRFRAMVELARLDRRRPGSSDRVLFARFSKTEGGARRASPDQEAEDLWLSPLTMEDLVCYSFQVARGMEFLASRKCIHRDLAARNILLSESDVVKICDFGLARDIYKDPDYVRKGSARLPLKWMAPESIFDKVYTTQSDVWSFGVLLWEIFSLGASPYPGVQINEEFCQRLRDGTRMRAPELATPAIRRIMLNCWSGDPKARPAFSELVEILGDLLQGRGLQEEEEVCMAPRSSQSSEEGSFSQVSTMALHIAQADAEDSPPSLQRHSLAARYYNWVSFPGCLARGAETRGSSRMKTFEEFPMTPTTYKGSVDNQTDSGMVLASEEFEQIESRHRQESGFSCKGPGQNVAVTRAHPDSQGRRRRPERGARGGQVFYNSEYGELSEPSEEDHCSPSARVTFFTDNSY
Method: The compounds in Table 1 were tested for the ability to inhibit the kinase activity of the listed protein kinases. […]

FGFR1 = FGFR1 (Homo sapiens, UniProt P11362); test: Kinase inhibition, FGFR1; assay type: biochemical; details: 10 μM ATP; read-out: Compound IC50 (M), FGFR1
Sequence of FGFR1 (P11362 22-822): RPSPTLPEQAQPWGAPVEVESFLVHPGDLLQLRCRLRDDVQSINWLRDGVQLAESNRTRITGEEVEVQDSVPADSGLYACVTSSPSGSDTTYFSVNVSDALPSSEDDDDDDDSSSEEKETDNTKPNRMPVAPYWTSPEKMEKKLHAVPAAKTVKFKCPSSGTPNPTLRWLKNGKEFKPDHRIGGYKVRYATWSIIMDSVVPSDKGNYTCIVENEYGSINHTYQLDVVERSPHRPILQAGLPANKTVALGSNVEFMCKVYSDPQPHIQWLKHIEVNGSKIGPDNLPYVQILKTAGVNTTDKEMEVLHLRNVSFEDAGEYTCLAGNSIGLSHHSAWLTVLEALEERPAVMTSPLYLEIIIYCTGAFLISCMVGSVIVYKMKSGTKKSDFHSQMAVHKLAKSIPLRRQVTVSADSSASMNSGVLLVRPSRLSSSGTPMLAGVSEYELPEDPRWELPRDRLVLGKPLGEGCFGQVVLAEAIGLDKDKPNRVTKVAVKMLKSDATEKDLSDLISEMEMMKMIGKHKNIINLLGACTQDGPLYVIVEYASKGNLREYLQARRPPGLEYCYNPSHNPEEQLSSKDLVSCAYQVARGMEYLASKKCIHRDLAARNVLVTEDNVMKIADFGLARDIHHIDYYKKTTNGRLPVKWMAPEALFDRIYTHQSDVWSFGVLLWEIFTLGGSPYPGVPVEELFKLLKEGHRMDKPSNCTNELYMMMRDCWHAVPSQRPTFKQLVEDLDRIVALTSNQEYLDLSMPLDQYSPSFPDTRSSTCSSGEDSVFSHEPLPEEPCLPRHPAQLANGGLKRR
Method: as §2

CDK4/cyclin D3 = CDK4/cyclin D3 (Homo sapiens, UniProt P11802); test: Kinase inhibition, CDK4/cyclin D3; assay type: biochemical; details: 10 μM ATP; read-out: Compound IC50 (M), CDK4/cyclin D3
Method: as §2

ABL1 = ABL1 (Homo sapiens, UniProt P00519); test: Kinase inhibition, ABL1; assay type: biochemical; details: 10 μM ATP; read-out: Compound IC50 (M), ABL1
Sequence of ABL1 (P00519 whole entry): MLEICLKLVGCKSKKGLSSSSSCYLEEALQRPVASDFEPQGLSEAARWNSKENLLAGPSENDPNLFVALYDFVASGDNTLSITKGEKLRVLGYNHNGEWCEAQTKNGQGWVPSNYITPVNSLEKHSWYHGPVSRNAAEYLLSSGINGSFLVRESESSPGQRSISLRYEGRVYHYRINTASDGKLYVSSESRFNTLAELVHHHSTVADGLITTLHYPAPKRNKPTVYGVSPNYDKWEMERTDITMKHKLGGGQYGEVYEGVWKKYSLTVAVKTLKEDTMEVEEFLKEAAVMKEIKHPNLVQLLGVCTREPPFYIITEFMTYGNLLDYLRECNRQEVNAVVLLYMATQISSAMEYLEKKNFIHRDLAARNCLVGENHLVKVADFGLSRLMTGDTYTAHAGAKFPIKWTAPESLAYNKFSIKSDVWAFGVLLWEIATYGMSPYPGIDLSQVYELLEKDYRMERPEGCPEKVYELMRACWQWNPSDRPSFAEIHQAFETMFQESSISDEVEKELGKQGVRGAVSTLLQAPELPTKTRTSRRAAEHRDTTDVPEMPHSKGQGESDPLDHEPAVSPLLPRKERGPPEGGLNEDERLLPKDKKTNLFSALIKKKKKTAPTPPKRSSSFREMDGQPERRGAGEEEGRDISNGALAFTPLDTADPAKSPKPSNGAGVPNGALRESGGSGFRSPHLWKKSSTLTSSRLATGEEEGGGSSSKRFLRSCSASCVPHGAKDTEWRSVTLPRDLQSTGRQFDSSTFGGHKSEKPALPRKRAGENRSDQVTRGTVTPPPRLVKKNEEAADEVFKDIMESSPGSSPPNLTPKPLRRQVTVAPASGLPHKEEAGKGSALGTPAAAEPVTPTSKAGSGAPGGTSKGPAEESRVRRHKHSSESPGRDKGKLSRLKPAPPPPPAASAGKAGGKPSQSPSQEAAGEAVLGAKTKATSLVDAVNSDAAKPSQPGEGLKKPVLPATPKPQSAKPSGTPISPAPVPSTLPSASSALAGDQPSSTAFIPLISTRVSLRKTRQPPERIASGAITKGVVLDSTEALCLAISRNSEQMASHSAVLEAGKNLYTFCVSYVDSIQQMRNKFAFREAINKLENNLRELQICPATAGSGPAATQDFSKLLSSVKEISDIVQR
Method: as §2

CDK6/cyclin D3 = CDK6/cyclin D3 (Homo sapiens, UniProt Q00534); test: Kinase inhibition, CDK6/cyclin D3; assay type: biochemical; details: 10 μM ATP; read-out: Compound IC50 (M), CDK6/cyclin D3
Method: as §2

FYN = FYN (Homo sapiens, UniProt P06241); test: Kinase inhibition, FYN; assay type: biochemical; details: 10 μM ATP; read-out: Compound IC50 (M), FYN
Method: as §2

RET = RET (Homo sapiens, UniProt P07949); test: Kinase inhibition, RET; assay type: biochemical; details: 10 μM ATP; read-out: Compound IC50 (M), RET
Sequence of RET (P07949 29-1114): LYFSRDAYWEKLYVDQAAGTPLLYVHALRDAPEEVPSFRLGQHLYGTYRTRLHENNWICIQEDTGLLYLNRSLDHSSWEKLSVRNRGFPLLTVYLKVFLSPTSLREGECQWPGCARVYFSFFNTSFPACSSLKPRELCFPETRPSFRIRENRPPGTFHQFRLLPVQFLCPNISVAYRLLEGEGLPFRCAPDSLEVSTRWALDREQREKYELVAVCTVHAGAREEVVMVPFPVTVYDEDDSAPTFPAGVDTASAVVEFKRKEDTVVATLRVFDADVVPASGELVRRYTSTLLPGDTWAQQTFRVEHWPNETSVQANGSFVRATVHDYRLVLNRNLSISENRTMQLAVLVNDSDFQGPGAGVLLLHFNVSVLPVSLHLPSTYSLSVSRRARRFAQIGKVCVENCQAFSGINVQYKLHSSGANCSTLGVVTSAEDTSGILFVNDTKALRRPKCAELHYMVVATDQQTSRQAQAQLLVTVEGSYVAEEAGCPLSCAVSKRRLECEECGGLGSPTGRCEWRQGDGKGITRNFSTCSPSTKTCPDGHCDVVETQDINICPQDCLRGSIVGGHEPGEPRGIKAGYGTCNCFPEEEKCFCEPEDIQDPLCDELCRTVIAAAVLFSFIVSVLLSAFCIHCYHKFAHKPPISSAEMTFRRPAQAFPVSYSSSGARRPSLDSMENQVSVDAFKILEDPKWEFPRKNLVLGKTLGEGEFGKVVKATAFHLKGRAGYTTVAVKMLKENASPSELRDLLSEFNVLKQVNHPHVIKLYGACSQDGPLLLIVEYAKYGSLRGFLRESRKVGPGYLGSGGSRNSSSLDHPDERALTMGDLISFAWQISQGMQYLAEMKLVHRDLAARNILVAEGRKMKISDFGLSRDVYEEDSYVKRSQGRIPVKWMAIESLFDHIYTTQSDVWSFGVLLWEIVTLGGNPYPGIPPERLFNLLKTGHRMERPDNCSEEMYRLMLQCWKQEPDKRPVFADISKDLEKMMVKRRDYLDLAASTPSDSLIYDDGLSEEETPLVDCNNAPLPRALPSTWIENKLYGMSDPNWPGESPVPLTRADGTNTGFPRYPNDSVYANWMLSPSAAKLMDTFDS
Method: as §2

CDK4/cyclin D1 = CDK4/cyclin D1 (Homo sapiens, UniProt P11802); test: Kinase inhibition, CDK4/cyclin D1; assay type: biochemical; details: 10 μM ATP; read-out: Compound IC50 (M), CDK4/cyclin D1
Method: as §2

FLT3 = target: T2, FLT3 (Homo sapiens, UniProt P36888); test: Kinase inhibition, FLT3; assay type: biochemical; details: 10 μM ATP; values <1 nM estimated from best curve fitting; read-out: Compound IC50 (M), FLT3
T2 sequence (P36888 27-993): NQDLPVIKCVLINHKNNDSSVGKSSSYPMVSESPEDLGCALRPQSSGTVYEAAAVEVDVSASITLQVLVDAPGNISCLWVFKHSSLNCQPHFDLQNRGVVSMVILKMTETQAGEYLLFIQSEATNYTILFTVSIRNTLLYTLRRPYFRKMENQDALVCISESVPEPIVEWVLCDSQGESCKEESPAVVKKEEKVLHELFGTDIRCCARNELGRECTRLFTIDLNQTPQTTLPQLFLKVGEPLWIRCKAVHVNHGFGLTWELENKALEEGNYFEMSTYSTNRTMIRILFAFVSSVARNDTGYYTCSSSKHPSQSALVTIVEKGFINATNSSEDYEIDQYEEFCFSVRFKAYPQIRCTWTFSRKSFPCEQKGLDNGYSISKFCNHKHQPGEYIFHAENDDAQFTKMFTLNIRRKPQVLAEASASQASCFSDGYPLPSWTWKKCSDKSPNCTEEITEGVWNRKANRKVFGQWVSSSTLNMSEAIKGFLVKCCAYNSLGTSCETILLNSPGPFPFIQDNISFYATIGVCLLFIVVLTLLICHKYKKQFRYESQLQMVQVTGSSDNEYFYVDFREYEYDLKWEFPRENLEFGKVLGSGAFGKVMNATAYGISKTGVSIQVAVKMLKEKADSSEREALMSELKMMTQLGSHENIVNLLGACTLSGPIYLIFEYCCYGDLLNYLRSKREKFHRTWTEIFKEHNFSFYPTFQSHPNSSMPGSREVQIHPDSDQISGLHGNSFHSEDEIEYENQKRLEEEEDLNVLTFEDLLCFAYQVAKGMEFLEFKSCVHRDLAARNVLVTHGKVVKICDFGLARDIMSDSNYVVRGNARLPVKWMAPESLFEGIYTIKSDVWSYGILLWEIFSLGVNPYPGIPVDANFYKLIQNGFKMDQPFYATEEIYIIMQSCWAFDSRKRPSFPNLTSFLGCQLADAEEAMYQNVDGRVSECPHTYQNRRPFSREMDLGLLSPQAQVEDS
Method: as §2

[5] = tested on: GRANTA-519 (human B Cell lymphoma)
From the text: as §3, §4, §5, §6, §7, §8

PKG2/PRKG2 = target: T3, PKG2/PRKG2 (Homo sapiens, UniProt Q13237); test: Kinase inhibition, PKG2/PRKG2; assay type: biochemical; details: 10 μM ATP; read-out: Compound IC50 (M), PKG2/PRKG2
T3 sequence (Q13237 1-762): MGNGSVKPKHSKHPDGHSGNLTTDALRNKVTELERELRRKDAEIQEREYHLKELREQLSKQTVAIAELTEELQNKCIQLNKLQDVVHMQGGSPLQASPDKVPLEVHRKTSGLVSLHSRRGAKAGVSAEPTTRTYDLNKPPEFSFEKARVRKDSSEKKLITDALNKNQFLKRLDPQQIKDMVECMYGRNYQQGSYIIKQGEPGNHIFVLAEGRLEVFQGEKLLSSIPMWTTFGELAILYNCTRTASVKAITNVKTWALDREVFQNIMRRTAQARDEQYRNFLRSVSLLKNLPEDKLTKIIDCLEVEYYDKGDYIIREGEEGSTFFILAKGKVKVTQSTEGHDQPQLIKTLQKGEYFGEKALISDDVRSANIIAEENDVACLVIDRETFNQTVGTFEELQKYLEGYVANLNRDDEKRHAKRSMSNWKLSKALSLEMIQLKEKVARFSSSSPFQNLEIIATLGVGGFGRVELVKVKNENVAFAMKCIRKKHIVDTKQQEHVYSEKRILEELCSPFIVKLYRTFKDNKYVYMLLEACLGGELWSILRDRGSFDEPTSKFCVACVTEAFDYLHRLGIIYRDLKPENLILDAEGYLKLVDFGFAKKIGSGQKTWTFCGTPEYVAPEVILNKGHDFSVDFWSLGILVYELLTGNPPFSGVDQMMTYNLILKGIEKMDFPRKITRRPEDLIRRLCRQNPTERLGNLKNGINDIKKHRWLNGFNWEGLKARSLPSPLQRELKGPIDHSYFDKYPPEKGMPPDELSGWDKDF
Method: as §2

CDK6/cyclin D1 = CDK6/cyclin D1 (Homo sapiens, UniProt Q00534); test: Kinase inhibition, CDK6/cyclin D1; assay type: biochemical; details: 10 μM ATP; values <1 nM estimated from best curve fitting; read-out: Compound IC50 (M), CDK6/cyclin D1
Sequence of CDK6/cyclin D1 (Q00534 whole entry): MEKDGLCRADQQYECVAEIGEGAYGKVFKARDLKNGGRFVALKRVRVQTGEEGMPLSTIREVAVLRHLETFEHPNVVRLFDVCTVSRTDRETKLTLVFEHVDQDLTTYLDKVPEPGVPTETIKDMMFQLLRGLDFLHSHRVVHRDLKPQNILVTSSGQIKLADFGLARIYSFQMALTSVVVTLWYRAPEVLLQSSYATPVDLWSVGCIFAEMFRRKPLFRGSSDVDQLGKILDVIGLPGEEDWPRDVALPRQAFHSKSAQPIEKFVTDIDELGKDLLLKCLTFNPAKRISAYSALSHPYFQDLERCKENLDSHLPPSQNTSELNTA
Sequence of CDK6/cyclin D1 (P24385 whole entry partner): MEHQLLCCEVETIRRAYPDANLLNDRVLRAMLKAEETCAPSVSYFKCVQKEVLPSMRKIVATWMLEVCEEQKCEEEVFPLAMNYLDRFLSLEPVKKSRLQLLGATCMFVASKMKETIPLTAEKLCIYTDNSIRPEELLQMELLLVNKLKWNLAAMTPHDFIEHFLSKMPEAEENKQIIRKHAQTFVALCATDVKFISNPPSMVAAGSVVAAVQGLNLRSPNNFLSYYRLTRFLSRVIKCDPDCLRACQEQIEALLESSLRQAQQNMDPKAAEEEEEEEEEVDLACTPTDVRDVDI
Method: as §2

CDK9/cyclin K = CDK9/cyclin K (Homo sapiens, UniProt P50750); test: Kinase inhibition, CDK9/cyclin K; assay type: biochemical; details: 10 μM ATP; read-out: Compound IC50 (M), CDK9/cyclin K
Method: as §2

PDGFRb = PDGFRb (Homo sapiens, UniProt P09619); test: Kinase inhibition, PDGFRb; assay type: biochemical; details: 10 μM ATP; read-out: Compound IC50 (M), PDGFRb
Method: as §2

Compound: N.N.[Cl][Pt][Cl] [Cisplatin, reference compound]
IC50 ([1]; K-562, 72 h): 3760 nM
% inhibition at top conc. ([1]; K-562, 72 h, top working concentration 100 μM): 98.74%
% inhibition at top conc. ([2]; HeLa, 72 h, top working concentration 100 μM): 99.18%
IC50 ([3]; DU 145, 72 h): 960 nM
% inhibition at top conc. ([3]; DU 145, 72 h, top working concentration 100 μM): 95.44%
% inhibition at top conc. ([4]; GRANTA-519, 72 h, top working concentration 100 μM): 77.25%
IC50 ([4]; GRANTA-519, 72 h, CellTiter-Glo): 1680 nM

IC50 (ARK5/NUAK1): 1.91e-06 M
IC50 (FLT4/VEGFR3): 1.72e-05 M
Compound: CC(=O)c1c(C)c2cnc(Nc3ccc(N4CCNCC4)cn3)nc2n(C2CCCC2)c1=O [Palbociclib, palbociclib, reference compound]

IC50 (FGFR1): 3.09e-08 M
IC50 (CDK4/cyclin D3): 2.77e-09 M
IC50 (ABL1): 2.01e-08 M
IC50 (ARK5/NUAK1): 2.28e-09 M
IC50 (CDK6/cyclin D3): 2.97e-09 M
IC50 (FYN): 3.29e-08 M
IC50 (RET): 8.13e-09 M
IC50 (CDK4/cyclin D1): < 1e-09 M
IC50 (FLT3): 4.25e-09 M
IC50 (FLT4/VEGFR3): 6.97e-09 M
IC50 (PKG2/PRKG2): > 0.0001 M
IC50 (CDK6/cyclin D1): < 1e-09 M
IC50 (CDK9/cyclin K): 8.06e-09 M
IC50 (PDGFRb): 6.12e-09 M
Compound: N#Cc1cc2cnc(Nc3ccc(N4CCNCC4)cc3)nc2n(C2CCCC2)c1=O [ON 1232580, 8-Cyclopentyl-7-oxo-2-(4-piperazin-1-yl-phenylamino)-7,8-dihydro-pyrido[2,3-d]pyrimidine-6-carbonitrile]
IC50 ([1]; Homo sapiens, K562, K-562, 72 h): 1190 nM
inhibition at 100 µM ([1]; Homo sapiens, K562, K-562, 72 h, top working concentration 100 μM, read-out: % inhibition at top conc.): 100%
Cytotoxicity, result in words ([1]; K-562 cells): potent inhibitor
Cytotoxicity, result in words ([2]; HeLa cells): potent inhibitor
IC50 ([2]; Homo sapiens, HeLa, 72 h, CellTiter-Glo, read-out: Absolute IC50): 1500 nM
inhibition at 100 µM ([2]; Homo sapiens, HeLa, 72 h, top working concentration 100 μM, read-out: % inhibition at top conc.): 100%
Cytotoxicity, result in words [5]: potent killer
Cytotoxicity, result in words ([3]; DU 145 cells): potent inhibitor
IC50 ([3]; Homo sapiens, DU 145, 72 h): 930 nM
inhibition at 100 µM ([3]; Homo sapiens, DU 145, 72 h, top working concentration 100 μM, read-out: % inhibition at top conc.): 99.9%
inhibition at 100 µM ([4]; Homo sapiens, Granta-519, 72 h, read-out: % inhibition at top conc.): 100%
IC50 ([4]; Homo sapiens, Granta-519, 72 h): 400 nM
